Earlier results on one molecule are cited in patent US20070225367A1, “Composition for beneficially influencing Alzheimer's disease and/or for Alzheimer's prophylaxis” (Clariant International Ltd, priority 2006, published 2007).

The target of data set [1] is β-amyloid aggregation (Homo sapiens, UniProt P05067). The settings on record: in vitro.
Data set [2] deals with β-amyloid levels. The settings on record: oral administration, APP transgenic mice.

Chain of β-amyloid aggregation (P05067 672-713 limits assumed): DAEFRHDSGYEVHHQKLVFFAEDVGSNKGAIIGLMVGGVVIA

Consider `[Cu]` [copper], for which the “effect on β-amyloid aggregation” value in data set [1] is on record as “inhibitory effect”. For the same molecule, the β-amyloid levels entry in data set [2] is “reduced”.
